The target of this assay is His-His-USP7 (aa208-560, [C315A]) (Homo sapiens (Human), UniProt Q93009, C315A). Description: Evaluation of the inhibition of USP7 by Fluorescence Intensity (FLINT) readings. Type of assay: biochemical. To be noted: 0.25 nM USP7, 60 minutes at 30° C. preincubation, 500 nM Ubiquitin-Rhodamine-110 substrate, 50% reduction in kinetic rate. How it is done: USP7 activity was measured using Rhodamine-110 c-terminal labelled Ubiquitin as a substrate (Viva Biosciences). Incubation with USP7 results in the release of Rhodamine-110 leading to an increase in fluorescence which can be used in the continuous measurement of USP7 activity.
His-His-USP7 (aa208-560, [C315A]), sequence (Q93009 208-560 C315A): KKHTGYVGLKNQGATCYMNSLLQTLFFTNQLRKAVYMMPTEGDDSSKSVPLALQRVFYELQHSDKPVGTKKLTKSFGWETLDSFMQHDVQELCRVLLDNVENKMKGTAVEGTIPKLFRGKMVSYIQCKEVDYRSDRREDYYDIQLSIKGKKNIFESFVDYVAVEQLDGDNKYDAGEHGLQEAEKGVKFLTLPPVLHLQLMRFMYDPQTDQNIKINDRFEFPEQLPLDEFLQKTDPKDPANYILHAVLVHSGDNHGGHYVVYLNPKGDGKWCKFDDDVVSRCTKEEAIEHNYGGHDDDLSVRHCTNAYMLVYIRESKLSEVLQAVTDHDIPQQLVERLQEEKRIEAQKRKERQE
The USP7 reactions were performed in a 50 μL volume, in 384 well black solid low binding plates (Corning #3575). The reaction buffer consisted of 100 mM Bicine pH 8.0, 0.01% TritonX100, 1 mM TCEP, and 10% DMSO.
0.25 nM His-His-USP7 (aa208-560, [C315A]) was incubated with compound (final concentration 10% DMSO) for 60 minutes at 30° C. The reaction was then initiated by the addition of 500 nM Ubiquitin-Rhodamine-110 substrate and the plate read every 3 minutes for 21 minutes to measure the release of Rhodamine-110. Fluorescence Intensity (FLINT) readings were measured using a […] Neo plate reader (Ex.485 nm, Em.535 nm).
The inhibition of increasing doses of compound was expressed as a percentage reduction in kinetic rate compared to the kinetic rates established between ‘DMSO only’ and ‘total inhibition’ controls (no USP7). The inhibitory concentrations that gave a 50% reduction in kinetic rate (IC50) were determined, from 11-point dose response curves, in XL-Fit using a 4-Parameter Logistic Model (Sigmoidal Dose-Response Model).
As for `CC(C)(C)OC(=O)N1CC[C@@H](C(=O)N2CCC(O)(Cn3cnc4sccc4c3=O)CC2)[C@H](c2ccccc2)C1` [EXAMPLE 2, tert-butyl (3R,4R)-4-[4-hydroxy-4-[(4-oxothieno[2,3-d]pyrimidin-3-yl)methyl]piperidine-1-carbonyl]-3-phenyl-piperidine-1-carboxylate], the IC50 is 128 nM.

Turning to `CC(C)(C)OC(=O)N1CC[C@@H](C(=O)N2CCC(O)(Cn3cnc4c(ccn4-c4ccccn4)c3=O)CC2)[C@H](c2ccccc2)C1` [EXAMPLE 15, tert-butyl (3R,4R)-4-[4-hydroxy-4-[[4-oxo-7-(2-pyridyl)pyrrolo[2,3-d]pyrimidin-3-yl]methyl]piperidine-1-carbonyl]-3-phenyl-piperidine-1-carboxylate], 274 nM corresponded to half-maximal inhibition (IC50).

`COc1ccc(-n2ncc3c(=O)n(CC4(O)CCN(C(=O)[C@@H]5CCN(C(=O)OC(C)(C)C)C[C@H]5c5ccccc5)CC4)cnc32)cc1` [EXAMPLE 44, tert-butyl (3R,4R)-4-[4-hydroxy-4-[[1-(4-methoxyphenyl)-4-oxo-pyrazolo[3,4-d]pyrimidin-5-yl]methyl]piperidine-1-carbonyl]-3-phenyl-piperidine-1-carboxylate] registered an IC50 of 61.5 nM. This IC50 lies about 4.5-fold lower than the previous one.

In turn, `COc1cc(-n2ccc3c(=O)n(CC4(O)CCN(C(=O)[C@@H]5CCN(C(=O)OC(C)(C)C)C[C@H]5c5ccccc5)CC4)cnc32)ccc1F` [EXAMPLE 57, tert-butyl (3R,4R)-4-[4-[[7-(4-fluoro-3-methoxy-phenyl)-4-oxo-pyrrolo[2,3-d]pyrimidin-3-yl]methyl]-4-hydroxy-piperidine-1-carbonyl]-3-phenyl-piperidine-1-carboxylate] had an IC50 of 70.2 nM.

As to `CC(C)(C)OC(=O)N1CC[C@@H](C(=O)N2CCC(O)(Cn3cnc4c(cnn4-c4ccc5c(c4)OCCO5)c3=O)CC2)[C@H](c2ccccc2)C1` [EXAMPLE 64, tert-butyl (3R,4R)-4-[4-[[1-(2,3-dihydro-1,4-benzodioxin-6-yl)-4-oxo-pyrazolo[3,4-d]pyrimidin-5-yl]methyl]-4-hydroxy-piperidine-1-carbonyl]-3-phenyl-piperidine-1-carboxylate], the midpoint of inhibition, the IC50, lay at 68.7 nM.

Compound `O=C([C@@H]1CCNC[C@H]1c1ccccc1)N1CCC(O)(Cn2cnc3c(cnn3-c3ccccc3)c2=O)CC1` [EXAMPLE 103, 5-[[4-hydroxy-1-[(3R,4R)-3-phenylpiperidine-4-carbonyl]-4-piperidyl]methyl]-1-phenyl-pyrazolo[3,4-d]pyrimidin-4-one] yielded an IC50 of 52.9 nM.

`O=C([C@@H]1CCNC[C@H]1c1ccccc1)N1CCC(O)(Cn2cnc3c(ccn3-c3ccccn3)c2=O)CC1` [EXAMPLE 104, 3-[[4-hydroxy-1-[(3R,4R)-3-phenylpiperidine-4-carbonyl]-4-piperidyl]methyl]-7-(2-pyridyl)pyrrolo[2,3-d]pyrimidin-4-one] gave an IC50 of 394 nM.

As to `O=C([C@@H]1CCN(CC(F)(F)F)C[C@H]1c1ccccc1)N1CCC(O)(Cn2cnc3[nH]ccc3c2=O)CC1` [EXAMPLE 117, 3-[[4-hydroxy-1-[(3R,4R)-3-phenyl-1-(2,2,2-trifluoroethyl)piperidine-4-carbonyl]-4-piperidyl]methyl]-7H-pyrrolo[2,3-d]pyrimidin-4-one], 1200 nM corresponded to half-maximal inhibition (IC50).

As to `CN1CC[C@@H](C(=O)N2CCC(O)(Cn3cnc4c(ccn4-c4ccccc4)c3=O)CC2)[C@H](c2ccccc2)C1` [EXAMPLE 121, 3-[[4-hydroxy-1-[(3R,4R)-1-methyl-3-phenyl-piperidine-4-carbonyl]-4-piperidyl]methyl]-7-phenyl-pyrrolo[2,3-d]pyrimidin-4-one], the IC50 came out at 140 nM.

For the compound `O=C([C@@H]1CCNC[C@H]1c1ccccc1)N1CCC(O)(Cn2cnc3c(ccn3-c3ccc(F)cc3)c2=O)CC1` [EXAMPLE 130, 7-(4-fluorophenyl)-3-[[4-hydroxy-1-[(3R,4R)-3-phenylpiperidine-4-carbonyl]-4-piperidyl]methyl]pyrrolo[2,3-d]pyrimidin-4-one], 37.7 nM corresponded to half-maximal inhibition (IC50).

The compound `COc1cccc(-n2ccc3c(=O)n(CC4(O)CCN(C(=O)[C@@H]5CCNC[C@H]5c5ccccc5)CC4)cnc32)c1` [EXAMPLE 136, 3-[[4-hydroxy-1-[(3R,4R)-3-phenylpiperidine-4-carbonyl]-4-piperidyl]methyl]-7-(3-methoxyphenyl)pyrrolo[2,3-d]pyrimidin-4-one] returned a half-maximal inhibitory concentration (IC50) of 48.6 nM.

`CN1CC[C@@H](C(=O)N2CCC(O)(Cn3cnc4c(ccn4-c4ccc(F)cc4)c3=O)CC2)[C@H](c2ccccc2)C1` [EXAMPLE 141, 7-(4-fluorophenyl)-3-[[4-hydroxy-1-[(3R,4R)-1-methyl-3-phenyl-piperidine-4-carbonyl]-4-piperidyl]methyl]pyrrolo[2,3-d]pyrimidin-4-one] displayed an IC50 of 74.8 nM.

Take `O=C([C@@H]1CCNC[C@H]1c1ccccc1)N1CCC(O)(Cn2cnc3c(ccn3-c3cccc(Cl)c3)c2=O)CC1` [EXAMPLE 142, 7-(3-chlorophenyl)-3-[[4-hydroxy-1-[(3R,4R)-3-phenylpiperidine-4-carbonyl]-4-piperidyl]methyl]pyrrolo[2,3-d]pyrimidin-4-one]: the IC50 was 56.7 nM.

For the compound `O=C([C@@H]1CCNC[C@H]1c1ccccc1)N1CCC(O)(Cn2cnc3c(ccn3-c3ccc(Cl)cc3)c2=O)CC1` [EXAMPLE 143, 7-(4-chlorophenyl)-3-[[4-hydroxy-1-[(3R,4R)-3-phenylpiperidine-4-carbonyl]-4-piperidyl]methyl]pyrrolo[2,3-d]pyrimidin-4-one], 41.2 nM corresponded to half-maximal inhibition (IC50).

In the case of `CC(=O)N1CC[C@@H](C(=O)N2CCC(O)(Cn3cnc4c(ccn4-c4ccccc4)c3=O)CC2)[C@H](c2ccccc2)C1` [EXAMPLE 147, 3-[[1-[(3R,4R)-1-acetyl-3-phenyl-piperidine-4-carbonyl]-4-hydroxy-4-piperidyl]methyl]-7-phenyl-pyrrolo[2,3-d]pyrimidin-4-one], the IC50 stood at 406 nM. This IC50 is about 9.9-fold higher than that of the compound before.

For `COc1ccc(-n2ccc3c(=O)n(CC4(O)CCN(C(=O)[C@@H]5CCN(C)C[C@H]5c5ccccc5)CC4)cnc32)cc1` [EXAMPLE 151, 3-[[4-hydroxy-1-[(3R,4R)-1-methyl-3-phenyl-piperidine-4-carbonyl]-4-piperidyl]methyl]-7-(4-methoxyphenyl)pyrrolo[2,3-d]pyrimidin-4-one], the IC50 is 52.4 nM.

As for `CN1CC[C@@H](C(=O)N2CCC(O)(Cn3cnc4c(ccn4-c4cccc(Cl)c4)c3=O)CC2)[C@H](c2ccccc2)C1` [EXAMPLE 152, 7-(3-chlorophenyl)-3-[[4-hydroxy-1-[(3R,4R)-1-methyl-3-phenyl-piperidine-4-carbonyl]-4-piperidyl]methyl]pyrrolo[2,3-d]pyrimidin-4-one], the IC50 came out at 64.8 nM.

Consider `COc1cc(-n2ccc3c(=O)n(CC4(O)CCN(C(=O)[C@@H]5CCNC[C@H]5c5ccccc5)CC4)cnc32)ccc1F` [EXAMPLE 157, 7-(4-fluoro-3-methoxy-phenyl)-3-[[4-hydroxy-1-[(3R,4R)-3-phenylpiperidine-4-carbonyl]-4-piperidyl]methyl]pyrrolo[2,3-d]pyrimidin-4-one], for which the IC50 came to 39.3 nM. Compared with the last compound, the IC50 is about 1.6-fold lower.

For `CC(C)CN1CC[C@@H](C(=O)N2CCC(O)(Cn3cnc4c(ccn4-c4ccccc4)c3=O)CC2)[C@H](c2ccccc2)C1` [EXAMPLE 163, 3-[[4-hydroxy-1-[(3R,4R)-1-isobutyl-3-phenyl-piperidine-4-carbonyl]-4-piperidyl]methyl]-7-phenyl-pyrrolo[2,3-d]pyrimidin-4-one], half-maximal inhibition (IC50) was put at 108 nM.

Compound `CC(=O)N1CC[C@@H](C(=O)N2CCC(O)(Cn3cnc4c(ccn4-c4ccc(F)cc4)c3=O)CC2)[C@H](c2ccccc2)C1` [EXAMPLE 166, 3-[[1-[(3R,4R)-1-acetyl-3-phenyl-piperidine-4-carbonyl]-4-hydroxy-4-piperidyl]methyl]-7-(4-fluorophenyl)pyrrolo[2,3-d]pyrimidin-4-one] had an IC50 of 102 nM. This IC50 and that of the compound before are within 1.5-fold of each other.

In the case of `COc1ccc(-n2ncc3c(=O)n(CC4(O)CCN(C(=O)[C@@H]5CC[N+](C)(C)C[C@H]5c5ccccc5)CC4)cnc32)cc1` [EXAMPLE 169, 5-[[1-[(3R,4R)-1,1-dimethyl-3-phenyl-piperidin-1-ium-4-carbonyl]-4-hydroxy-4-piperidyl]methyl]-1-(4-methoxyphenyl)pyrazolo[3,4-d]pyrimidin-4-one], the IC50 stood at 860 nM.

`CC(C)C(=O)N1CC[C@@H](C(=O)N2CCC(O)(Cn3cnc4c(ccn4-c4ccccc4)c3=O)CC2)[C@H](c2ccccc2)C1` [EXAMPLE 177, 3-[[4-hydroxy-1-[(3R,4R)-1-(2-methylpropanoyl)-3-phenyl-piperidine-4-carbonyl]-4-piperidyl]methyl]-7-phenyl-pyrrolo[2,3-d]pyrimidin-4-one] returned an IC50 of 103 nM.

`COc1ccc(-n2ccc3c(=O)n(CC4(O)CCN(C(=O)[C@@H]5CCN(C(C)=O)C[C@H]5c5ccccc5)CC4)cnc32)cc1` [EXAMPLE 178, 3-[[1-[(3R,4R)-1-acetyl-3-phenyl-piperidine-4-carbonyl]-4-hydroxy-4-piperidyl]methyl]-7-(4-methoxyphenyl)pyrrolo[2,3-d]pyrimidin-4-one] had an IC50 of 96.1 nM.

The compound `COc1cccc(-n2ccc3c(=O)n(CC4(O)CCN(C(=O)[C@@H]5CCN(C(C)=O)C[C@H]5c5ccccc5)CC4)cnc32)c1` [EXAMPLE 179, 3-[[1-[(3R,4R)-1-acetyl-3-phenyl-piperidine-4-carbonyl]-4-hydroxy-4-piperidyl]methyl]-7-(3-methoxyphenyl)pyrrolo[2,3-d]pyrimidin-4-one] registered an IC50 of 88.4 nM.

The values above are taken from patent US11046681B2, “Substituted piperidines for the treatment of cancer” (LES LABORATOIRES SERVIER, priority 2016, dated 2021).
